This is an account of results in patent publication EP1444982A1, “The use of purine derivatives as selective kinase inhibitors” (MERCKLE GMBH, priority 2003, dated 2004).

Common to all, as to type: biochemical
In one assay the test system is ROCKII (h). Description: Kinase inhibition assay (33P-ATP, P30 filter, scintillation counting): ROCK-II. Particulars: 30µM Testsubstanz (100 µM ATP); 40 min.
The next assay concerns the target SAPK2a (h) (Homo sapiens, UniProt Q16539). Description: Kinase inhibition assay (33P-ATP, P30 filter, scintillation counting): SAPK2a. Particulars: 30µM Testsubstanz (100 µM ATP); read-out: Hemmung von Kinasen in % SAPK2a (h). As to the method:
(§1) Alle Kinasen werden auf zehnfache Arbeitskonzentration vor Anwendung in dem Essay verdünnt. Die Zusammensetzung des Verdünnungspuffers ist für jede Kinase in der nachfolgenden Tabelle angegeben.
(§2) Alle Substrate werden gelöst und auf eine Stammlösung in entsalztem Wasser verdünnt.
(§3) SAPK2a (h) wird in einem Endreaktionsvolumen von 25 µl mit 25 mM Tris pH 7,5, 0.02 mM EGTA, 0.33 mg/ml Myelin-Basisprotein, 10 mM MgAcetat und [γ-^33P-ATP] inkubiert (spezifische Aktivität etwa 50 cpm/pmol, Konzentration wie erforderlich). Die Reaktion wird durch Zugabe von Mg^2+[γ-^33P-ATP] initiiert. Nach 40-minütiger Inkubation bei Raumtemperatur wird die Reaktion durch Zugabe von 5 µl einer 3 %igen Phosphorsäurelösung gestoppt. 10 µl der Reaktion werden dann auf ein P30-Filter gegeben und dreimal jeweils 5 Minuten in 50 mM Phosphorsäure und einmal in Methanol gewaschen. Anschließend wird getrocknet und eine Szintillationszählung durchgeführt.

The next assay deals with PKB (h) (Homo sapiens, UniProt P31749). Briefly: Kinase inhibition assay (33P-ATP, P30 filter, scintillation counting): PKB. As to conditions: 40 min; 30µM Testsubstanz (100 µM ATP); read-out: Hemmung von Kinasen in % PKB (h). Here is the method: as §1, §2
Chain of PKB (h) (P31749 whole entry): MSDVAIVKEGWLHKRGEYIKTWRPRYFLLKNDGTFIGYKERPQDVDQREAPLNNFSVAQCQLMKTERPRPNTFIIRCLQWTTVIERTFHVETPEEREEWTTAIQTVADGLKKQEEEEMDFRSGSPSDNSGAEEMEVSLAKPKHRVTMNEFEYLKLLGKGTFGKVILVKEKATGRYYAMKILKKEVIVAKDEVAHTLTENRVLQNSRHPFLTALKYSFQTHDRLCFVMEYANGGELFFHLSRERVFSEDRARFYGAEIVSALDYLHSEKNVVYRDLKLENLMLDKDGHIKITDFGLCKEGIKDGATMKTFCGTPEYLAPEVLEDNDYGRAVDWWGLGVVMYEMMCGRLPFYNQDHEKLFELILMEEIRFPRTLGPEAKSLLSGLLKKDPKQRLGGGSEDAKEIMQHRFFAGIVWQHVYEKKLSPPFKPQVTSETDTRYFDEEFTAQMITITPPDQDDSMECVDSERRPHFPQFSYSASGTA
as §3, with “PKBα (h)(5-10mU) wird” for “SAPK2a (h) wird”, “mit 8” for “mit 25”, “mM MOPS” for “mM Tris”, “pH 7.0, 0.2” for “pH 7,5, 0.02”, “mM EDTRA, 30 µM GRPRTSSFAEGKK,” for “mM EGTA, 0.33 mg/ml Myelin-Basisprotein,”

A further assay deals with Lck (h) (Homo sapiens, UniProt P06239). Description: Kinase inhibition assay (33P-ATP, P30 filter, scintillation counting): Lck. As to conditions: 30µM Testsubstanz (100 µM ATP); read-out: Hemmung von Kinasen in % Lck (h). Here is the method:
as §1, §2
(§4) Lck (h)(5-10 mU) in einem Endreaktionsvolumen von 25 µl wird mit 50 mM Tris pH 7.5, 0.1 mM EGTA, 0.1 mM NaVanadate, 250 µM KVEKIGEGTYGVVYK (Cdc2 Peptid), 10 mM MgAcetat und [γ-^33P-ATP] inkubiert (spezifische Aktivität etwa 500 cpm/pmol, Konzentration wie erforderlich). Die Reaktion wird durch Zugabe von Mg^2+[γ-^33P-ATP] initiiert. Nach 40-minütiger Inkubation bei Raumtemperatur wird die Reaktion durch Zugabe von 5 µl einer 3 %igen Phosphorsäurelösung gestoppt. 10 µl der Reaktion werden dann auf ein P30-Filter gegeben und dreimal jeweils 5 Minuten in 50 mM Phosphorsäure und einmal in Methanol gewaschen. Anschließend wird getrocknet und eine Szintillationszählung durchgeführt.

Another assay concerns the target GSK3β (h) (Homo sapiens, UniProt P49841). Description: Kinase inhibition assay (33P-ATP, P30 filter, scintillation counting): GSK3β. Particulars: 30µM Testsubstanz (100 µM ATP); read-out: Hemmung von Kinasen in % GSK3β (h). As to the method: as §1, §2
as §4, with “GSK3β (h)(5-10mU) in” for “Lck (h)(5-10 mU) in”, “mit 8” for “mit 50”, “mM MOPS” for “mM Tris”, “pH 7.0, 0.2” for “pH 7.5, 0.1”, “mM EDTA, 20” for “mM EGTA, 0.1 mM NaVanadate, 250”, “µM […](p) EDEEE (phospho GS2” for “µM KVEKIGEGTYGVVYK (Cdc2”

The test system of the next assay is PKA (h). Description: Kinase inhibition assay (33P-ATP, P30 filter, scintillation counting): PKA. Particulars: 30µM Testsubstanz (100 µM ATP); 40 min.
For a further assay, the target named is MAPK1 (h) (Homo sapiens, UniProt P27361). Description: Kinase inhibition assay: MAPK1. As to conditions: 30µM Testsubstanz (100 µM ATP); read-out: Hemmung von Kinasen in % MAPK1 (h).
Chain of MAPK1 (h) (P27361 whole entry): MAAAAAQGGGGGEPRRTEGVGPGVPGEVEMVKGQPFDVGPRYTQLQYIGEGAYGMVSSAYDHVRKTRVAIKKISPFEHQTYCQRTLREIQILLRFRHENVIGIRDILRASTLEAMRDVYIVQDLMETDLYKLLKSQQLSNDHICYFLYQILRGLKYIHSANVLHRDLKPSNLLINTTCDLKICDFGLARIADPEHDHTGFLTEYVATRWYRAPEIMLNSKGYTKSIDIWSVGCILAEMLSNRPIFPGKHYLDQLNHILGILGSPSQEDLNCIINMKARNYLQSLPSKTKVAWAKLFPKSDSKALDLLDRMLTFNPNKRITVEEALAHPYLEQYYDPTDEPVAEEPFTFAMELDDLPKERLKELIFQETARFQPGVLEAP
Excerpt: as §1, §2

The target of a further assay is JNK3 (r) (Rattus norvegicus, UniProt P49187). Description: Kinase inhibition assay: JNK3. Particulars: 30µM Testsubstanz (100 µM ATP); read-out: Hemmung von Kinasen in % JNK3 (r).
Chain of JNK3 (r) (P49187 whole entry): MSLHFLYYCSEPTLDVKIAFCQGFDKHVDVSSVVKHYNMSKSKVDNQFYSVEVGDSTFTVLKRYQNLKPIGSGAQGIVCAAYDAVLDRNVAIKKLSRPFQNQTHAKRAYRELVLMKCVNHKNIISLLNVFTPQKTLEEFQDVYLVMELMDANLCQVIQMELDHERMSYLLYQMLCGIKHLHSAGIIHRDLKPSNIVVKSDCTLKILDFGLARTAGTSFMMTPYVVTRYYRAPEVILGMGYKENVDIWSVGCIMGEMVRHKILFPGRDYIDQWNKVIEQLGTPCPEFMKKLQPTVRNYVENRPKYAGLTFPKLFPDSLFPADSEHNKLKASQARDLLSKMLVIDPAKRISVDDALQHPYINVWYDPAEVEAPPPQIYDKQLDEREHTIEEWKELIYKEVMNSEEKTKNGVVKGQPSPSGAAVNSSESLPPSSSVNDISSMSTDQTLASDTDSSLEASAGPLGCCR
Excerpt: as §1, §2

For a further assay, the target named is MAPK2 (h) (Homo sapiens, UniProt P28482). Description: Kinase inhibition assay: MAPK2. Particulars: 30µM Testsubstanz (100 µM ATP); read-out: Hemmung von Kinasen in % MAPK2 (h).
Chain of MAPK2 (h) (P28482 whole entry): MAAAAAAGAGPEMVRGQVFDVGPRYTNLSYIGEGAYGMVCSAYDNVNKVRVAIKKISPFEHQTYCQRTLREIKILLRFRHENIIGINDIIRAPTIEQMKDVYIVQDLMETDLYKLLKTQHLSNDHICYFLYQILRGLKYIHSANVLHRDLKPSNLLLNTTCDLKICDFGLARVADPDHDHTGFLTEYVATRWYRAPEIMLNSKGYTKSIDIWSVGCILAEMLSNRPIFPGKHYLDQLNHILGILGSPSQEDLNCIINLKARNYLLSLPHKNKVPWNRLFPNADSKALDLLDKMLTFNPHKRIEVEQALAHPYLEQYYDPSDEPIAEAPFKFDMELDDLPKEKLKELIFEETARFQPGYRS
Excerpt: as §1, §2

The next assay addresses c-RAF (h) (Homo sapiens, UniProt P04049). Briefly: Kinase inhibition assay (33P-ATP, P30 filter, scintillation counting): c-RAF. Particulars: 40 min; 30µM Testsubstanz (100 µM ATP); read-out: Hemmung von Kinasen in % c-RAF (h). Here is the method:
as §1, §2
c-RAF (ha)(5-10 mU) in einem Endreaktionsvolumen von 25 µl wird mit 25 mM Tris pH 7.5,.0.02 mM EGTA, 0.66 mg/ml Myelin-Basisprotein, 10 mM MgAcetat und [γ-^33P-ATP] inkubiert (spezifische Aktivität etwa 50 cpm/pmol, Konzentration wie erforderlich). Die Reaktion wird durch Zugabe von Mg^2+[γ-^33P-ATP] initiiert. Nach 40-minütiger Inkubation bei Raumtemperatur wird die Reaktion durch Zugabe von 5 µl einer 3 %igen Phosphorsäurelösung gestoppt. 10 µl der Reaktion werden dann auf ein P30-Filter gegeben und dreimal jeweils 5 Minuten in 50 mM Phosphorsäure und einmal in Methanol gewaschen. Anschließend wird getrocknet und eine Szintillationszählung durchgeführt.

Another assay concerns the target MEK1 (h) (Homo sapiens, UniProt Q02750). Briefly: Kinase inhibition assay: MEK1 (coupled to MAPK2 assay). As to conditions: 30µM Testsubstanz (100 µM ATP); read-out: Hemmung von Kinasen in % MEK1 (h). As to the method: as §1, §2
MEK1 (h)(1-5 mU) in einem Endreaktionsvolumen von 25 µl wird mit 50 mM Tris pH 7.5, 0.2 mM EGTA, 0.1 % b-Mercaptoethanol, 0,01 % Brij-35, 1 µM inaktives MAPK2 (m), 10 mM MgAcetat und kaltem ATP inkubiert (Konzentration wie erforderlich). Die Reaktion wird durch Zugabe von MgATB initiiert. Nach 40-minütiger Inkubation bei Raumtemperatur werden […] dieses Inkubationsgemisches dazu verwendet, den oben beschriebenen MAPK2-Assay zu initiieren.

Chain of MEK1 (h) (Q02750 whole entry): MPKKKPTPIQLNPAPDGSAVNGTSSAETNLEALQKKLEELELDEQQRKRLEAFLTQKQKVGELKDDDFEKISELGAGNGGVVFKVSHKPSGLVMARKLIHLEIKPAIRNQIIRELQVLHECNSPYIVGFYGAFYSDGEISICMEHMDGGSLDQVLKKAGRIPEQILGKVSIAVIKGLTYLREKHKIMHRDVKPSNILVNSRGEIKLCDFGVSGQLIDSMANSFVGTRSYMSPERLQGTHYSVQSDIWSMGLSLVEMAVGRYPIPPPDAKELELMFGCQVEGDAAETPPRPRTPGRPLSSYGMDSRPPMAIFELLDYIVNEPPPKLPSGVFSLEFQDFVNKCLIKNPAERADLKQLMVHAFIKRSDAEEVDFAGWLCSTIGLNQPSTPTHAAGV
Chain of SAPK2a (h) (Q16539 whole entry): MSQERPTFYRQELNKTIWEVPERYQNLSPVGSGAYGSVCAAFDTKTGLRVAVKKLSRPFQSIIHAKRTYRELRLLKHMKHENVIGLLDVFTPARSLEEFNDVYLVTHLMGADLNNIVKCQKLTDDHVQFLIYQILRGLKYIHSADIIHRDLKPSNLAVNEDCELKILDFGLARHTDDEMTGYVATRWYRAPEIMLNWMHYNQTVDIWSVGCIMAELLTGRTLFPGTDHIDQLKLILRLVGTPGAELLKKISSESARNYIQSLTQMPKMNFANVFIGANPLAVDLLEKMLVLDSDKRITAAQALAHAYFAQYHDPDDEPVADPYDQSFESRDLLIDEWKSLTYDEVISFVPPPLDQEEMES
Chain of c-RAF (h) (P04049 whole entry): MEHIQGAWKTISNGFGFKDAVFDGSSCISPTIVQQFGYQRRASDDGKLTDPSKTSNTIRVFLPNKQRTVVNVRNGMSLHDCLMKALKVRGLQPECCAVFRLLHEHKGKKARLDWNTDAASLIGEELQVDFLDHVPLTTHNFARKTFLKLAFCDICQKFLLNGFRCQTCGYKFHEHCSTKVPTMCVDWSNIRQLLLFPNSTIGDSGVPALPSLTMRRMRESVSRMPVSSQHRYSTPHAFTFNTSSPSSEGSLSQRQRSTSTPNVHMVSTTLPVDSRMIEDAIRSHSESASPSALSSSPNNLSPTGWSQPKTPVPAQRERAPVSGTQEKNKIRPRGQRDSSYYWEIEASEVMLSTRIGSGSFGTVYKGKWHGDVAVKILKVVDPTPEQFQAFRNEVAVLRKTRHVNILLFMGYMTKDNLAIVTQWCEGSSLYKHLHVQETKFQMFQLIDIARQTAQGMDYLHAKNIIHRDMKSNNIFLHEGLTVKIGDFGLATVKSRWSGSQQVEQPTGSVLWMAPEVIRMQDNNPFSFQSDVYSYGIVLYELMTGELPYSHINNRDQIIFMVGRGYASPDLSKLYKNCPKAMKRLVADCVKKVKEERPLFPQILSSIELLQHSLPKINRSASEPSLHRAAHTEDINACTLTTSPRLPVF
Chain of Lck (h) (P06239 whole entry): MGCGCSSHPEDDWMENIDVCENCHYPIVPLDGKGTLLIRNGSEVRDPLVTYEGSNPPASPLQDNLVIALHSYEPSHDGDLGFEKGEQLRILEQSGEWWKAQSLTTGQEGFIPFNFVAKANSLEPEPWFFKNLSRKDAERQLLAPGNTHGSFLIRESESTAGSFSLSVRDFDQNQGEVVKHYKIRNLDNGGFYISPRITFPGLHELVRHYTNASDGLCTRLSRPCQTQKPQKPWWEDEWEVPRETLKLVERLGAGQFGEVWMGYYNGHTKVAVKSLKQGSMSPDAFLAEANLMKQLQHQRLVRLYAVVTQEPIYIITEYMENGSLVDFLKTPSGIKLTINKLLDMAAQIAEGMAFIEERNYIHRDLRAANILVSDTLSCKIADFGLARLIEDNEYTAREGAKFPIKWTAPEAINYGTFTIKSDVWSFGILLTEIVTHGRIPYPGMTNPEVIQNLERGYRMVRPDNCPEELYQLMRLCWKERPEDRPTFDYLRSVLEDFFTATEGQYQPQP
Chain of GSK3β (h) (P49841 whole entry): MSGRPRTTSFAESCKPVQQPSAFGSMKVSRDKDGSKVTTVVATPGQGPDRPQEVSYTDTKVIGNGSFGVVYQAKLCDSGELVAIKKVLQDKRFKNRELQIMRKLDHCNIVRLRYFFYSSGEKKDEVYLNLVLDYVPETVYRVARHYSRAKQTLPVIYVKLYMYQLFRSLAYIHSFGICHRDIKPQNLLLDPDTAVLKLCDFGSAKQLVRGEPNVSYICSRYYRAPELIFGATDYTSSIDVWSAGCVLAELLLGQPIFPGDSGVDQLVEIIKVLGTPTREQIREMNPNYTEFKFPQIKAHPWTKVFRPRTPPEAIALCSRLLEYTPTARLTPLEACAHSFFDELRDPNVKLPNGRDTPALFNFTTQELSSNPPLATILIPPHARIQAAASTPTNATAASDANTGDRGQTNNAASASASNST

Turning to `c1ccc(Nc2ncnc3[nH]cnc23)cc1` [Verbd. 1, Phenyl-(9H-purin-6-yl)-amin], the “Hemmung von Kinasen in % ROCKII (h)” value in the assay on ROCKII (h) stood at 48%. For the same compound, the inhibition at 30 µM at SAPK2a (h) is 34%; at PKB (h) it was 14%; on Lck (h), 39%; at GSK3β (h), 13%; on MAPK1 (h), 22%; at JNK3 (r), 11%. The inhibition at 30 µM amounted to 33% on MAPK2 (h), 19% on c-RAF (h) and 19% on MEK1 (h). In the assay on PKA (h), the “Hemmung von Kinasen in % PKA (h)” value was found to be 32%.

In the case of `Cn1cnc2c(Sc3ccc(F)cc3)ncnc21` [Verbd. 18, 6-(4-Fluoro-phenylsulfanyl)-9-methyl-9H-purin], the “Hemmung von Kinasen in % ROCKII (h)” value in the assay with ROCKII (h) came out at 6%. The inhibition at 30 µM was found to be 38% on SAPK2a (h); 0% on PKB (h); 2% at Lck (h); 0% on GSK3β (h); 9% on MAPK1 (h); 9% on JNK3 (r). The inhibition at 30 µM on MAPK2 (h) is 12%; on c-RAF (h) it was 12%; at MEK1 (h), 6%. The “Hemmung von Kinasen in % PKA (h)” value in the assay with PKA (h) is reported as 1%.

For the compound `Fc1ccc(Sc2ncnc3[nH]cnc23)cc1` [Verbd. 16, 6-(4-Fluoro-phenylsulfanyl)-9H-purin], in the assay with ROCKII (h), the “Hemmung von Kinasen in % ROCKII (h)” value was 37%. Also, the inhibition at 30 µM at SAPK2a (h) worked out at 72%; on PKB (h) it was 0%; at Lck (h), 13%; on GSK3β (h), 0%; at MAPK1 (h) it was 2%; on JNK3 (r), 8%. Besides, the results for the inhibition at 30 µM on MAPK2 (h), on c-RAF (h) and at MEK1 (h) were 12%, 29% and 2%, respectively. Further, the “Hemmung von Kinasen in % PKA (h)” value with PKA (h) was determined as 10%.

For `Fc1ccc(Nc2ncnc3[nH]cnc23)cc1` [Verbd. 2, (4-Fluoro-phenyl)-(9H-purin-6-yl)-amin], in the assay with ROCKII (h), the “Hemmung von Kinasen in % ROCKII (h)” value is listed as 52%. In addition, the inhibition at 30 µM was 30% on SAPK2a (h); 18% at PKB (h); 42% at Lck (h); 13% on GSK3β (h); 33% on MAPK1 (h); 10% on JNK3 (r). The inhibition at 30 µM on MAPK2 (h) turned out to be 48%; on c-RAF (h), 24%; at MEK1 (h), 34%. The “Hemmung von Kinasen in % PKA (h)” value in the assay with PKA (h) was 40%.

As to `Nc1ncnc2c1ncn2Cc1ccc(F)cc1` [Verbd. 42a, 9-(4-Fluoro-benzyl)-9H-purin-6-ylamin], the “Hemmung von Kinasen in % ROCKII (h)” value in the assay with ROCKII (h) is given as 5%. Besides, the inhibition at 30 µM on SAPK2a (h) turned out to be 7%; on PKB (h), 0%; on Lck (h), 19%; on GSK3β (h) it was 7%; on MAPK1 (h) it was 17%; on JNK3 (r), 17%. Besides, the inhibition at 30 µM was 11% on MAPK2 (h), 25% at c-RAF (h) and 7% on MEK1 (h). The “Hemmung von Kinasen in % PKA (h)” value in the assay on PKA (h) came out at 1%.

In the case of `Cn1cnc2c(Nc3ccccc3)ncnc21` [Verbd. 13, (9-Methyl-9H-purin-6-yl)-phenyl-amin], the “Hemmung von Kinasen in % ROCKII (h)” value in the assay with ROCKII (h) is given as 0%. In addition, the inhibition at 30 µM on SAPK2a (h) was 0%; at PKB (h) it was 0%; at Lck (h), 18%; on GSK3β (h), 26%; at MAPK1 (h), 16%; on JNK3 (r), 5%. The inhibition at 30 µM on MAPK2 (h) stood at 42%; on c-RAF (h), 44%; at MEK1 (h) it was 4%. In addition, the “Hemmung von Kinasen in % PKA (h)” value with PKA (h) worked out at 0%.

In the case of `COc1ncnc2ncn(Cc3ccc(F)cc3)c12` [Verbd. 44, 7-(4-Fluoro-benzyl)-6-methoxy-7H-purin], the “Hemmung von Kinasen in % ROCKII (h)” value in the assay on ROCKII (h) is on record as 1%. For the same compound, the inhibition at 30 µM is 8% at SAPK2a (h); 0% at PKB (h); 0% at Lck (h); 5% on GSK3β (h); 19% at MAPK1 (h); 30% on JNK3 (r). Also, the inhibition at 30 µM amounted to 3% at MAPK2 (h), 0% at c-RAF (h) and 3% at MEK1 (h). Further, in the assay with PKA (h), the “Hemmung von Kinasen in % PKA (h)” value came to 7%.

For `c1ccc(Cn2cnc3c(Sc4ccccc4)ncnc32)cc1` [Verbd. 74, 9-Benzyl-6-phenylsulfanyl-9H-purin], the “Hemmung von Kinasen in % ROCKII (h)” value in the assay with ROCKII (h) came out at 1%. Further, the inhibition at 30 µM at SAPK2a (h) was determined as 64%; at PKB (h), 1%; at Lck (h), 0%; at GSK3β (h), 1%; on MAPK1 (h) it was 0%; at JNK3 (r), 0%. Further, the inhibition at 30 µM amounted to 0% at MAPK2 (h), 0% at c-RAF (h) and 6% at MEK1 (h). Further, in the assay on PKA (h), the “Hemmung von Kinasen in % PKA (h)” value worked out at 0%.

`Cn1c(-c2ccccc2)nc2c(Sc3ccccc3)ncnc21` [Verbd. 23, 9-Methyl-8-phenyl-6-phenylsulfanyl-9H-purin]: in the assay with ROCKII (h), the “Hemmung von Kinasen in % ROCKII (h)” value was 1%. In addition, the inhibition at 30 µM on SAPK2a (h) worked out at 44%; at PKB (h) it was 42%; on Lck (h), 5%; on GSK3β (h), 0%; at MAPK1 (h) it was 10%; at JNK3 (r), 12%. Also, the inhibition at 30 µM at MAPK2 (h) worked out at 0%; on c-RAF (h) it was 12%; on MEK1 (h), 4%. The “Hemmung von Kinasen in % PKA (h)” value with PKA (h) is on record as 3%.
